Experimental findings from patent publication US20090076152A1, “Novel Compounds Active as Muscarinic Receptor Antagonists” (priority 2007, published 2009) are described below.

Where only a bound is given, the exact number is not on record here.

T1 sequence (P20309 whole entry): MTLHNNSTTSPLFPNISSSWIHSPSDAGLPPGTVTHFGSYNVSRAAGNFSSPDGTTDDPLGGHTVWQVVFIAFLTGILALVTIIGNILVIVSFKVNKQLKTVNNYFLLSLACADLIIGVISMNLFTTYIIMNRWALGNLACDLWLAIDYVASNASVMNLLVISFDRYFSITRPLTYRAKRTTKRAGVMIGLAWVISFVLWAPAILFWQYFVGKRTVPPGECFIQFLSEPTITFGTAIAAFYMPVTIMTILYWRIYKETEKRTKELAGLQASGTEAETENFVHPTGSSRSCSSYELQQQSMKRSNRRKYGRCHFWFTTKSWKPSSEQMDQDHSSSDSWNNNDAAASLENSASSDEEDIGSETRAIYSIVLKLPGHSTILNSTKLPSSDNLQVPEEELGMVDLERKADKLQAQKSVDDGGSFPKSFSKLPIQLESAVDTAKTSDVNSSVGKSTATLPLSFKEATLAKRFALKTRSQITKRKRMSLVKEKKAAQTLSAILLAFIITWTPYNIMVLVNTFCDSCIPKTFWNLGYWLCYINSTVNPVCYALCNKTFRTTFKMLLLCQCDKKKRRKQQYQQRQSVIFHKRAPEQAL

This assay addresses T1, human muscarinic M3 receptor (Homo sapiens, UniProt P20309).
T1 construct: expressed in transfected cells
Put plainly: hM3 β-Lac potency assay (NFAT-Betalactamase reporter in CHO-K1 cells). The conditions noted are these: CHO cells recombinantly expressing human M3, NFAT β-lactamase reporter; inhibition of 80 nM carbamyl choline signal, 4 h; IC50 converted to Ki by Cheng-Prusoff; read-out: Cell based β-lactamase M3 Ki. How it is done: M3 potency was determined in CHO-K1 cells transfected with the NFAT-Betalactamase gene. CHO (Chinese Hamster Ovary) cells recombinantly expressing the human muscarinic M3 receptor were transfected with the NFAT_β-Lac_Zeo plasmid. Cells were grown in DMEM with Glutamax-1, supplemented with 25 mM HEPES(Life Technologies 32430-027), containing 10% FCS (Foetal Calf Serum; Sigma F-7524), […] Sodium pyruvate (Sigma S-8636), NEM (non-Essential Amino Acids; Invitrogen 11140-035) and 200 μg/ml Zeocin (Invitrogen R250-01).
Cells were harvested for assay when they reached 80-90% confluency using enzyme free cell Dissociation Solution (Life technologies 13151-014) incubated with the cells for 5 min at 37° C. in an atmosphere containing 5% CO2. Detached cells were collected in warmed growth media and centrifuged at 2000 rpm for 10 min, washed in PBS (Phosphate Buffered Saline; Life Technologies 14190-094) and centrifuged again as just described. The cells were re-suspended at 2×10^5 cells/ml in growth medium (composition as described above). 20 μl of this cell suspension was added to each well of a 384 well black clear bottomed plate (Greiner Bio One 781091-PFI). The assay buffer used was PBS supplemented with 0.05% Pluronic F-127 (Sigma 9003-11-6) and 2.5% DMSO. Muscarinic M3 receptor signalling was stimulated using 80 nM carbamyl choline (Aldrich N240-9) incubated with the cells for 4 h at 37° C./5% CO2 and monitored at the end of the incubation period using a Tecan SpectraFluor+ plate reader (λ—excitation 405 nm, emission 450 nm and 503 nm). M3 receptor antagonists under test were added to the assay at the beginning of the 4 h incubation period and compound activity measured as the concentration dependent inhibition of the carbamyl choline induced signal. Inhibition curves were plotted and IC50 values generated using a 4-parameter sigmoid fit and converted to Ki values using the Cheng-Prusoff correction and the KD value for carbamyl choline in the assay.
For `CC(C)N(CC[C@H](c1ccccc1)c1cc(CCOc2ccc(CCNCc3ccc(O)c(F)c3)cc2)ccc1O)C(C)C` [Example 13, 2-[(1R)-3-(diisopropylamino)-1-phenylpropyl]-4-[2-(4-{2-[(3-fluoro-4-hydroxybenzyl)amino]ethyl}phenoxy)ethyl]phenol], the Ki is greater than 12.1 nM. As for `CC(C)N(CC[C@H](c1ccccc1)c1cc(CCOc2ccc(CCNCc3cccc(F)c3O)cc2)ccc1O)C(C)C` [Example 14, 2-[(1R)-3-(diisopropylamino)-1-phenylpropyl]-4-[2-(4-{2-[(3-fluoro-2-hydroxybenzyl)amino]ethyl}phenoxy)ethyl]phenol], the Ki is 1.4 nM. Then `CC(C)N(CC[C@H](c1ccccc1)c1cc(CCOc2ccc(CCNCc3cc(F)c(O)c(F)c3)cc2)ccc1O)C(C)C` [Example 15, 4-{[2-(4-{2-[3-((1R)-3-Diisopropylamino-1-phenyl-propyl)-4-hydroxy-phenyl]-ethoxy}-phenyl)-ethylamino]-methyl}-2,6-difluoro-phenol], with 1.55 nM. Regarding `CC(C)N(CC[C@H](c1ccccc1)c1cc(CCOc2ccc(CCNCc3cc(Cl)c(O)c(Cl)c3)cc2)ccc1O)C(C)C` [Example 16, 2,6-Dichloro-4-{[2-(4-{2-[3-((1R)-3-diisopropylamino-1-phenyl-propyl)-4-hydroxy-phenyl]-ethoxy}-phenyl)-ethylamino]-methyl}-phenol], the Ki is greater than 6.87 nM. On to `CC(C)N(CC[C@H](c1ccccc1)c1cc(CCOc2ccc(CCNCc3cccc(O)c3Cl)cc2)ccc1O)C(C)C` [Example 17, 2-chloro-3-[({2-[4-(2-{3-[(1R)-3-(diisopropylamino)-1-phenylpropyl]-4-hydroxyphenyl}ethoxy)phenyl]ethyl}amino)methyl]phenol], for which the Ki is 1 nM. Next, `CC(C)N(CC[C@H](c1ccccc1)c1cc(CCOc2ccc(CCNCc3cccc(O)c3)cc2)ccc1O)C(C)C` [Example 18, 2-((1R)-3-Diisopropylamino-1-phenyl-propyl)-4-(2-{4-[2-(3-hydroxy-benzylamino)-ethyl]-phenoxy}-ethyl)-phenol]: greater than 10.4 nM; `CC(C)N(CC[C@H](c1ccccc1)c1cc(CCOc2ccc(CCNCc3cccc(O)c3F)cc2)ccc1O)C(C)C` [Example 19, 3-[({2-[4-(2-{3-[(1R)-3-(diisopropylamino)-1-phenylpropyl]-4-hydroxyphenyl}ethoxy)phenyl]ethyl}amino)methyl]-2-fluorophenol]: 2.69 nM. Then `CC(C)N(CC[C@H](c1ccccc1)c1cc(CCOc2ccc(CCNCc3cc(F)c(O)c(Cl)c3)cc2)ccc1O)C(C)C` [Example 20, 2-Chloro-4-{[2-(4-{2-[3-((1R)-3-diisopropylamino-1-phenyl-propyl)-4-hydroxy-phenyl]-ethoxy}-phenyl)-ethylamino]-methyl}-6-fluoro-phenol], with greater than 5.89 nM. On to `CC(C)N(CC[C@H](c1ccccc1)c1cc(CCOc2ccc(CCNCc3cc(O)cc(O)c3)cc2)ccc1O)C(C)C` [Example 21, 5-{[2-(4-{2-[3-((1R)-3-Diisopropylamino-1-phenyl-propyl)-4-hydroxy-phenyl]-ethoxy}-phenyl)-ethylamino]-methyl}-benzene-1.3-diol], for which the Ki is greater than 5.75 nM.

`CC(C)N(CC[C@H](c1ccccc1)c1cc(CCOc2ccc(CCNCc3cc(F)cc(F)c3O)cc2)ccc1O)C(C)C` [Example 22, 2-{[2-(4-{2-[3-((1R)-3-Diisopropylamino-1-phenyl-propyl)-4-hydroxy-phenyl]-ethoxy}-phenyl)-ethylamino]-methyl}-4,6-difluoro-phenol]: the Ki came to 7.11 nM. For the molecule `CC(C)N(CC[C@H](c1ccccc1)c1cc(CCOc2ccc(CCNCc3ccc(F)c(O)c3)cc2)ccc1O)C(C)C` [Example 23, 2-[(1R)-3-(diisopropylamino)-1-phenylpropyl]-4-[2-(4-{2-[(4-fluoro-3-hydroxybenzyl)amino]ethyl}phenoxy)ethyl]phenol], the Ki is greater than 6.66 nM. Next, `CC(C)N(CC[C@H](c1ccccc1)c1cc(CCOc2ccc(CCNC(=O)c3cc(Cl)c(O)c(Cl)c3)cc2)ccc1O)C(C)C` [Example 24, 3,5-Dichloro-N-[2-(4-{2-[3-((1R)-3-diisopropylamino-1-phenyl-propyl)-4-hydroxy-phenyl]-ethoxy}-phenyl)-ethyl]-4-hydroxy-benzamide]: 2.15 nM; `CC(C)N(CC[C@H](c1ccccc1)c1cc(CCOc2ccc(CCNC(=O)c3ccc(F)c(O)c3)cc2)ccc1O)C(C)C` [Example 25, 4-Fluoro-N-[2-(4-{2-[3-((1R)-3-diisopropylamino-1-phenyl-propyl)-4-hydroxy-phenyl]-ethoxy}-phenyl)-ethyl]-3-hydroxy-benzamide]: 0.751 nM; `CC(C)N(CC[C@H](c1ccccc1)c1cc(CCOc2ccc(CCNC(=O)c3ccc(O)cc3)cc2)ccc1O)C(C)C` [Example 26, 4-Hydroxy-N-[2-(4-{2-[3-((1R)-3-diisopropylamino-1-phenyl-propyl)-4-hydroxy-phenyl]-ethoxy}-phenyl)-ethyl]-benzamide]: 0.705 nM. Next, `CC(C)N(CC[C@H](c1ccccc1)c1cc(CCOc2ccc(CCNS(=O)(=O)c3ccc(O)cc3)cc2)ccc1O)C(C)C` [Example 27, N-[2-(4-{2-[3-((1R)-3-diisopropylamino-1-phenyl-propyl)-4-hydroxy-phenyl]-ethoxy}-phenyl)-ethyl]-4-hydroxy-benzenesulfonamide]: 1.32 nM.
